Measured values reported in US8507756B2, “Plant protection” (Plant Bioscience Limited, priority 2007, dated 2013).

Test system: Myzus persicae
Assay: JA or MeJA seed treatment, tomato plants challenged with aphids
Type: in vivo
Details: tomato cv. Carousel; seed treatment 3.0 mM MeJA; challenged 10 weeks after seed treatment; 12 days feeding
Protocol: Tomato, pepper, maize and wheat seeds were treated with 3 mM JA or 1.5 mM JA solutions or with 3 mM methyl jasmonate (MeJA) or with deionised water containing 42.8 mM ethanol (control) by full submersion of up to 40 seeds in a Petri dish of solution wrapped in foil for a period of 24 hours at 4° C. in a fridge. A temperature of 4° C. was used both to prevent degradation of the jasmonic acid solutions and to prevent germination of the seeds. The seeds were then removed from the treatment solution and washed in 1 liter of deionised water for 5 minutes to remove the JA or MeJA coating the outside of the seeds. Tomato seeds were sown in rockwool blocks and grown on peat-based compost in glass houses at 12° C.-28° C. under artificial light on a 16 hour light and 8 hour dark cycle for 48, 56 or 70 days. Tomato plants were then challenged with Tetranychus urticae (two-spotted spider mite) which were allowed to feed for 9 days, Manduca sexta (tobacco hornworm) caterpillars which were allowed to feed for 4 days or Myzus persicae (aphid), which were allowed to feed for 10 or 12 days. In each case these organisms were restricted to the plant on which they had originally been placed. Pepper plants were challenged with Myzus persicae (aphid), which were allowed to feed for 2 weeks. Maize and wheat plants were challenged with Spodoptera […] caterpillars which were allowed to feed for 2 days (maize) or 3 days (wheat). The effect of Myzus persicae on plants was determined by counting the aphid population on each plant under a dissecting microscope at ×10 magnification. Seeds of a UK commercial F1 hybrid tomato variety (cv. Carousel) were treated with 3.0 mM jasmonic acid (JA) and 42.8 mM ethanol in deionised H2O for a period of 24 hours at 4° C. in the dark. […] Aphids were allowed to feed on the plants for twelve days and the aphid population was measured at intervals over this period. […]

SMILES: CC/C=C\CC1C(=O)CCC1CC(=O)OC (stereo not shown) [MeJA, jasmonic acid methyl ester]
- Aphid population compared with control plants: significant (p<0.05) reduction
